The results in this text go back to US20220151962A1, “NOVEL INHIBITORS OF HISTONE DEACETYLASE 10” (Deutsches Krebsforschungszentrum, priority 2019, published 2022).

The structures appear in SMILES notation.

One data set has as its target T1, HDAC1 (Homo sapiens, UniProt Q13547).
T1 construct: purchased BPS Bioscience 50051
As to the kind of experiment: HDAC-Glo I/II assay, HDAC1. It is filed as biochemical. The note with it: recombinant human HDAC1, HDAC-Glo; read-out: pIC50 HDAC1 Glo (converted).

The target of another data set is T2, HDAC2 (Homo sapiens, UniProt Q92769).
T2 construct: purchased BPS Bioscience 50002
As to the kind of experiment: HDAC-Glo I/II assay, HDAC2. It is filed as biochemical. The note with it: recombinant human HDAC2, HDAC-Glo; read-out: pIC50 HDAC2 Glo (converted).

The next data set addresses T3, HDAC3/NcoR2 complex (Homo sapiens, UniProt O15379).
T3 construct: purchased BPS Bioscience 50003
The data set is described as follows: HDAC-Glo I/II assay, HDAC3/NcoR2 complex. The note with it: recombinant human HDAC3/NcoR2 complex, read-out: pIC50 HDAC3 Glo (converted). It is filed as biochemical.

Another data set deals with T4, HDAC6 (Homo sapiens, UniProt Q9UBN7).
T4 construct: purchased BPS Bioscience 50006
T4 sequence (Q9UBN7 1-1215): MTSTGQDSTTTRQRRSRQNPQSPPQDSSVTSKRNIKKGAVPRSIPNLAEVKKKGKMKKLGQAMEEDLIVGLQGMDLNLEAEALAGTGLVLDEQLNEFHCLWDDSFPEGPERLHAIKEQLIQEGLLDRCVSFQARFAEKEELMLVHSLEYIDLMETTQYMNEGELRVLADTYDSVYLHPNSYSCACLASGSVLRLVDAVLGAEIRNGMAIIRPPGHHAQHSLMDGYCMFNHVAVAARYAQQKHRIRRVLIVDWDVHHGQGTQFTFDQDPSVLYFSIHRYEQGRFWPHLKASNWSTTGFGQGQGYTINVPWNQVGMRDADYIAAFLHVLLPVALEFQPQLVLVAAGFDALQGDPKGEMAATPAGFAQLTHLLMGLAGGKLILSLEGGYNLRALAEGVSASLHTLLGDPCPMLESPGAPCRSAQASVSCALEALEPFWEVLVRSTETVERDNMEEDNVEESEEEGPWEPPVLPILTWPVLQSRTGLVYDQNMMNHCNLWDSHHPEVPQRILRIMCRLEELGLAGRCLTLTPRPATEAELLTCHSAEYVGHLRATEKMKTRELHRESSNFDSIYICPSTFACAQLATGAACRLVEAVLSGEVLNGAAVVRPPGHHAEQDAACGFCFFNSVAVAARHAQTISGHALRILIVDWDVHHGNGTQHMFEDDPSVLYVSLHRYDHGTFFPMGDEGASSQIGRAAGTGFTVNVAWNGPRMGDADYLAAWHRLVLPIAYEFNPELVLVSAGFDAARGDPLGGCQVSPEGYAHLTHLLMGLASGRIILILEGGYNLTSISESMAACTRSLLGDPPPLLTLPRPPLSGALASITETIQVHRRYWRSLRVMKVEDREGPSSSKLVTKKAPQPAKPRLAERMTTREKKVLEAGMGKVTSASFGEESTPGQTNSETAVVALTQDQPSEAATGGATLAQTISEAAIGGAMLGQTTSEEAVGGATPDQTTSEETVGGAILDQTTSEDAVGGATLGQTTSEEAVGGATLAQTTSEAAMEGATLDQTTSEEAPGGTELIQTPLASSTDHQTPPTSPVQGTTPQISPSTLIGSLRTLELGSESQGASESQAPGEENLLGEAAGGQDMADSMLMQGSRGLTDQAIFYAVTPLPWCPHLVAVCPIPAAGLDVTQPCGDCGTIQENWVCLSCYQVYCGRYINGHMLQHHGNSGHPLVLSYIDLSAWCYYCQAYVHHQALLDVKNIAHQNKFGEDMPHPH
As to the kind of experiment: HDAC-Glo I/II assay, HDAC6. It is filed as biochemical. The note with it: recombinant human HDAC6, HDAC-Glo; read-out: pIC50 HDAC6 Glo (converted).

For another data set, the target named is T5, TwinStrep-GST-HDAC10 (Homo sapiens, UniProt Q969S8).
T5 construct: made in house; host or cells: Sf21 insect cells (baculovirus, pFastBac1)
T5 sequence (Q969S8 1-669): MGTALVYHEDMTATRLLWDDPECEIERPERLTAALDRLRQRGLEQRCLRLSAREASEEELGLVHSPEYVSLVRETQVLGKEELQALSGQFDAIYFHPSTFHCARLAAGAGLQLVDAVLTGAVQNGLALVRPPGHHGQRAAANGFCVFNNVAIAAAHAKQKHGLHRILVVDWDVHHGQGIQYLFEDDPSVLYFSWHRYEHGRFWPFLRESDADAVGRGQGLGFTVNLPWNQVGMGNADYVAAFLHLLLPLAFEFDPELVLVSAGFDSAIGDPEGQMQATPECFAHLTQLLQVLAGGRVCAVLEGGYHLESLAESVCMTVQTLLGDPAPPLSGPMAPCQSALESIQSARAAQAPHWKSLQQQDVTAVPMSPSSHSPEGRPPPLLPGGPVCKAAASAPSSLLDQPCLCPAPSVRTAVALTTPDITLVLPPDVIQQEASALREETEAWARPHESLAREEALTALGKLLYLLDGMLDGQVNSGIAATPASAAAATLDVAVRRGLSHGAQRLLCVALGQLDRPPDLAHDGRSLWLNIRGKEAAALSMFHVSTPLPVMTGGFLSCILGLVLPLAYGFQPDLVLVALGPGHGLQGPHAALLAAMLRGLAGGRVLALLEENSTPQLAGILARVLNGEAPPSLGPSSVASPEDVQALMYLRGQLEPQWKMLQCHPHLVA
The data set is described as follows: HDAC10 TR-FRET assay (Tubastatin-AF647-Tracer displacement). It is filed as binding. The note with it: TR-FRET, 60 min at rt; read-out: pIC50 HDAC10 FRET (converted).

Another data set addresses T6, HDAC8 (Homo sapiens, UniProt Q9BY41).
T6 sequence (Q9BY41 1-377): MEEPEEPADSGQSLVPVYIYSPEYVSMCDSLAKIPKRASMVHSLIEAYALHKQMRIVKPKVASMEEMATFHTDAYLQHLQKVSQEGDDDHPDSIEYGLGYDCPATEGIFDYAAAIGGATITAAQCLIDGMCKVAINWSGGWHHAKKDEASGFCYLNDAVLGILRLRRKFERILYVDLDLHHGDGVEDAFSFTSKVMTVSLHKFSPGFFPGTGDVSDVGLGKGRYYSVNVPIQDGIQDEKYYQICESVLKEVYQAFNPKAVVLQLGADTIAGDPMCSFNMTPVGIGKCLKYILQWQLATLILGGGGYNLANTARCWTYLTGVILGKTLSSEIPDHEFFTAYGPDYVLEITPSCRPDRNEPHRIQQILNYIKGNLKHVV
The data set is described as follows: HDAC-Glo I/II assay, HDAC8. It is filed as biochemical. The arrangement: purchased BPS Bioscience 50008. The following applies: recombinant human HDAC8, HDAC-Glo; read-out: pIC50 HDAC8 Glo (converted).

Data set [1] addresses T7, HDAC6 (2nd catalytic domain)-nanoluciferase fusion in HeLa cells (Homo sapiens, UniProt Q9UBN7).
T7 sequence (Q9UBN7 482-800 limits assumed): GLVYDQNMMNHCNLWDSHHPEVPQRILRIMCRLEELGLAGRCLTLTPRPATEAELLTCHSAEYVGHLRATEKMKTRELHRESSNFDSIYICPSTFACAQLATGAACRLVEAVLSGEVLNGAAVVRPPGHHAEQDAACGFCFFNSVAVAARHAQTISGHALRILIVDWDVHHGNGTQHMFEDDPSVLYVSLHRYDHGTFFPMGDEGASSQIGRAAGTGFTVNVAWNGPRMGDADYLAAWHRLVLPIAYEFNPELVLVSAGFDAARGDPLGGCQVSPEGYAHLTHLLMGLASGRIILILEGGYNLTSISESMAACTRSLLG
As to the kind of experiment: BRET intracellular target engagement assay, HDAC6. A general note: Bioluminescence resonance energy transfer reports proximity on the nanometre scale.

The target of data set [2] is T8, HDAC10-nanoluciferase fusion in HeLa cells (Homo sapiens, UniProt Q969S8).
T8 sequence (Q969S8 1-669): T5 sequence (Q969S8 1-669)
The data set is described as follows: BRET intracellular target engagement assay, HDAC10. The following applies: for HDAC10/6 fold selectivity (BRET): HDAC10 over HDAC6, from BRET.

A short description of data set [3]: Solubility in water (observation during purification). It is filed as physicochemical.
The nature of data set [4]: Stability on exposure to air (observation). It is filed as physicochemical. The note with it: especially in solution.

T3 sequence (O15379 whole entry): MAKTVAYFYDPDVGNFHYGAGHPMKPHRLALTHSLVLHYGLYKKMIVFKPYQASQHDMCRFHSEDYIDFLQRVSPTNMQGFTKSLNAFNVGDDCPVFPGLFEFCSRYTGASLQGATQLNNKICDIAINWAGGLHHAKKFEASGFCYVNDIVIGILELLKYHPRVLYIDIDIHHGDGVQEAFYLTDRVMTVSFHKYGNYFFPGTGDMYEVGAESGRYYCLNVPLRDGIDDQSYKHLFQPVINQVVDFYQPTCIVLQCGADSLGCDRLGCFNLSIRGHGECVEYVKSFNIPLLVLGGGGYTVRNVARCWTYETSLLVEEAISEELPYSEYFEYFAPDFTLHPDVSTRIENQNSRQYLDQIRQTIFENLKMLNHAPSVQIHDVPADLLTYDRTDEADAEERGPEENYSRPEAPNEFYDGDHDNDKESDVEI
T3 sequence (Q9Y618 395-489 partner limits assumed): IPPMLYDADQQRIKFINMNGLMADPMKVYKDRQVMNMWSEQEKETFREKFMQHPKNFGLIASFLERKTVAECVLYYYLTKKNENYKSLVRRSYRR
T2 sequence (Q92769 whole entry): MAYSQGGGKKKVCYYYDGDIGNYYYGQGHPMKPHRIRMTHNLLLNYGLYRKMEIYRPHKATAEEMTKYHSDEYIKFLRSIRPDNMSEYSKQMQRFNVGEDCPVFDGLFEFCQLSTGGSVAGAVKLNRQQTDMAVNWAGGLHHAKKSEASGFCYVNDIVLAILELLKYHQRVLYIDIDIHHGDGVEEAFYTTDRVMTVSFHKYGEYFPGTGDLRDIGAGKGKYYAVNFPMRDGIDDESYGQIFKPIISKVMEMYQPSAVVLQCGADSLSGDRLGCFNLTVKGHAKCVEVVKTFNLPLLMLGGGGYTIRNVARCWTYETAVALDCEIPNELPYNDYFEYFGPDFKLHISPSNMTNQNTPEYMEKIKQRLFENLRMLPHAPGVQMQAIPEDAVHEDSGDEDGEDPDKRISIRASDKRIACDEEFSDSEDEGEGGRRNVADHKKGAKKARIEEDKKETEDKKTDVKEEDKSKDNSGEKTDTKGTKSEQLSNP
T1 sequence (Q13547 whole entry): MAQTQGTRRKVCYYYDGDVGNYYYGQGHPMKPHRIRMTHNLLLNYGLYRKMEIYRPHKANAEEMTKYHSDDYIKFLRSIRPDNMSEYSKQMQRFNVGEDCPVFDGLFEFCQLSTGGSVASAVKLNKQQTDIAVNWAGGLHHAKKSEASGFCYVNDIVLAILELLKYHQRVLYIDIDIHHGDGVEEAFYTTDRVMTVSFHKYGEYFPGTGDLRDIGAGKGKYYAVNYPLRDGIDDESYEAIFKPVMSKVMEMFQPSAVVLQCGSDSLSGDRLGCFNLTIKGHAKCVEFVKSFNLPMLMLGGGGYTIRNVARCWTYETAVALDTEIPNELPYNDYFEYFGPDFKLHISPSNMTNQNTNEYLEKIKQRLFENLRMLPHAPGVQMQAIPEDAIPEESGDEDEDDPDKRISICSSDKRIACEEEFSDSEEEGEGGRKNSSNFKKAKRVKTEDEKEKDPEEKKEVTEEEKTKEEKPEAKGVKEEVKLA

In the case of `O=C(CC1CN(CCC(=O)Nc2ccccc2)C1)NO` [DKFZ-770, 3-(3-(2-(Hydroxyamino)-2-oxoethyl)azetidin-1-yl)-N-phenylpropanamide], the IC50 on HDAC1 is 50.1 µM; at HDAC2 it was 79.4 µM; on HDAC3/NcoR2 complex it was over 100 µM; at HDAC6 it was 6.31 µM; on TwinStrep-GST-HDAC10, 0.158 µM; at HDAC8, 20 µM. Also, the IC50 in data set [1] is over 39.8 µM; in data set [2], 2 µM. Besides, the “HDAC10/6 fold selectivity (BRET)” value in data set [2] was over 20 fold.

Regarding `COc1ccc(C(=O)NCCN(C)CCCC(=O)NO)c2ccccc12` [DKFZ-774, N-(2-((4-(Hydroxyamino)-4-oxobutyl)(methyl)amino)ethyl)-4-methoxy-1-naphthamide], the IC50 was 6.31 µM at HDAC1; 12.6 µM on HDAC2; over 100 µM at HDAC3/NcoR2 complex; 2.51 µM on HDAC6; 0.00316 µM on TwinStrep-GST-HDAC10; 1.26 µM at HDAC8. Further, the values for the IC50 in data set [1] and in data set [2] were about 12.6 µM and 0.0316 µM, respectively. The “HDAC10/6 fold selectivity (BRET)” value in data set [2] is reported as 398 fold.

In the case of `C[N+](C)(CCCC(=O)[N-]O)CCNC(=O)c1ccccc1` [DKFZ-777, (4-((2-Benzamidoethyl)dimethylammonio)butanoyl)(hydroxy)amide], the IC50 on HDAC1 is over 100 µM; on HDAC2, over 100 µM; at HDAC3/NcoR2 complex, over 100 µM; at HDAC6 it was over 100 µM; at TwinStrep-GST-HDAC10, 0.398 µM; on HDAC8 it was over 100 µM. Further, the IC50 was over 39.8 µM in data set [1] and 31.6 µM in data set [2]. The solubility in water entry in data set [3] is “poorly soluble in water”. In addition, the “HDAC10/6 fold selectivity (BRET)” value in data set [2] is given as over 1 fold.

As to `CN(CCNC(=O)CS)CCNC(=O)c1ccccc1` [DKFZ-825, N-(2-((2-(2-Mercaptoacetamido)ethyl)(methyl)amino)ethyl)benzamide], the IC50 at HDAC1 was 12.6 µM; at HDAC2, 12.6 µM; on HDAC3/NcoR2 complex it was over 100 µM; on HDAC6, 3.98 µM; on TwinStrep-GST-HDAC10 it was 0.0126 µM; at HDAC8, over 100 µM. Besides, the “stability when exposed to air” value in [4] is “form the disulfide when exposed to air”.
